Measured values from patent publication US5935982A, “Methods of treating retroviral infection and compounds useful therefor” (The University of North Carolina at Chapel Hill, priority 1997, dated 1999).

Key:
HIV-1 integrase = target: T1, HIV-1 integrase (Human immunodeficiency virus type 1 group M subtype B, UniProt P04585); assay: Integrase inhibition assay (site-specific cleavage/joining of labeled oligonucleotide substrate); type: biochemical, HIV-1 (HXB2 clone); settings: initial screening at 10 μM; assay in duplicate
T1 construct: using the integrase coding domain from the HXB2 clone; made in house; host or cells: E. coli
Description: Purification of Integrase Protein. Integrase was overproduced in E. coli from an inducible plasmid containing the integrase sequence under control of a lacI-regulated T7 polymerase using the integrase coding domain from the HXB2 clone of HIV-1 DNA (L. Ratner et al, AIDS Res. Hum. Retroviruses 3:57 (1987)), pT7fl1-IN. A one liter culture at an O.D. of 0.6 was induced by the addition of IPTG to 0.5 mM. After three hours, the cells were harvested by centrifugation and the pellets were stored at -70° C.
The integrase protein was purified by a modification of the method of Sherman and Fyfe, Proc. Natl. Acad. Sci. USA 87:5119 (1990). The cells were lysed by thawing in a buffer (50 mM Tris-HCl pH 7.5, 5 mM dithiothreitol, 1 mM EDTA, 1 mg/ml lysozyme) on ice at 6 ml/g bacterial pellet for 30 minutes, and then incubating at 37° C. for 5 minutes. The lysate was centrifuged at 12,000×g for one hour. The pellets were resuspended in 50 mM Tris-HCl, pH 7.5, 1 mM dithiothreitol, 1 mM EDTA, 1M NaCl (4 ml/g original bacteria). The homogenate was stirred for 30 minutes at 4° C. and recentrifuged for 30 minutes at 12,000×g.
The supernatant was made 0.8M in ammonium sulfate by the slow addition of powder with stirring over a 30 minute period. The extract was then centrifuged to remove any precipitate and applied to a phenyl sepharose column. After a 50 ml wash with high salt buffer (50 mM Tris-HCl, 1 mM EDTA, 5 mM DTT, 2M NaCl), the protein was eluted with a gradient from high salt to O salt buffer containing 10% (weight/vol) glycerol and further purified through a G75 Sephadex column to remove background nuclease. A one liter culture generates enough integrase activity to perform over a thousand drug inhibition assays. […]
Cleavage of specific sites is assessed as described in Sherman et al., supra, except that the assay buffer was the same as that reported by Chow et al, Science 255:723 (1992). The substrate employed is the same as that described for use in the dumbell assay described in Chow et al., J. Virol. 68:7869 (1994), the disclosure of which is incoroprated herein by reference in its entirety. Essentially, the assay is performed with an oligonucleotide of 31 nucleotides that is self-annealing to form a dumbell shape with a nick therein. This substrate mimics the integrated virus and is specifically recognized by integrase to release 2 fragments. When the substrate is end-labeled with γ^32 P-ATP and T4 polynucleotide kinase, and treated with integrase protein, the product is site-specific cleavage of the substrate to form a very different molecular weight when electrophoresed on a denaturing polyacrylamide gel. This allows the reaction to be more easily quantitated with the phosphorimager. This assay represents the step of the integrase reaction where integrase completes its action. The IC50 value reported in Table 1 is generated by regression analysis of the percent control reaction with integrase at various drug concentrations. Initial screening of the compounds was performed at a constant 10 μM concentration for each test compound. Those with activity at 10 μM, were then used to identify IC50 values.
The other assay used consisted of the single 20 mer oligonucleotides corresponding to either the U5 or U3 ends of HIV-1 are end-labeled with ^32 P, annealed with its complement, purified, and used under the same conditions as described above for the endonuclease assay. Reaction products are denatured with formamide, electrophoresed through 20% denaturing polyacrylamide gels and visualized by autoradiography. Both cleavage and ligation activity can be assessed from one gel. To assess the ligation activity alone, "precleaved" substrate that had the -2 cleavage artificially produced by using a radiolabelled 18 mer oligonucleotide was also used for some experiments
Testing as Integrase Inhibitors. Integrase overproduced in E. coli was purified as described above in accordance with Sherman et al, supra, and used in drug inhibition assays. […]

in vitro = type: cell-based; settings: human, cem and magic cells
Description: (§1) Cell lines used were CEM cells, a human T-cell lymphona cell line, A. Kaplan et al, J. Virol. 67:4050-5 (1993), and Magic cells, J. Kimpton et al, J. Virol. 66:2232 (1992). The CEM cells were grown in RPMI-1640 medium supplemented with 5% FCS. The Magic Cells, a HELA derivative, were grown in DMEM/H supplemented with 5% FCS, G418 (20 mg/ml) and Hygromycin (10 mg/ml). The HIV isolate was strain HXB2, originally from Lee Ratner in the laboratory of Robert Gallo at the National Institutes of Health.
Three different toxicity tests were performed on the cell lines used to measure virus infectivity.
The initial test for toxicity utilized the XTT Assay as described by Weislow et al, J. Natl. Cancer Inst. 81:577 (1989). This is the standard assay used originally to measure cell toxicity by potential reverse transcriptase inhibitors. Briefly, cells were grown to cells/ml and drug dilutions were added to the medium. After two days incubation, XTT reagent is added and incubation is continued for 4 hours at 37° C. Following incubation, the plates are read at 450 minus 650 nm (the 650 value is the backround value which is automatically subtracted) with controls of media+XTT reagent without cells, and cells+media without reagent. Also a control of cells+media+XTT reagent was run for each plate. Medium without phenol red was employed to minimize background color as the XTT reagent goes from colorless (unreduced) to orange (reduced). The XTT reagent was freshly prepared on the day of assay as follows: 1 mg/ml of XTT in 0.01M phenazine methosulfate. The phenazine methosulfate solution was prepared ahead of time and stored at 4° C. in a dark bottle. The XTT reagent is added to the microtiter wells at 24 ul per 100 ul of medium. The O.D. was measured on a Vmax plate reader from Molecular Devices Co. with data reduction. Results are expressed as percent of untreated controls. The least toxic compounds were Compounds A, B, and F with toxicities values at 500 μM or greater.
Next, a plating efficiency test measured the ability of the cell to grow after incubation with drug for a number of days. Magic cells were grown from an initial cell concentration of 0.8×104 with or without various concentrations of test compound for 6 days. Plating ability of the cells was assessed by plating dilutions of each culture on plastic. Colony forming units were determined after growth for two to four days by counting colonies after staining the plates. Each sample was plated in duplicate and the colony number averaged.
The third test for cell toxicity assessed growth rate in the presence of the test compound versus a control culture. Magic cells were grown over a period of 15 days with or without various dilutions of test compound. Aliquots were removed every other day and the cells were counted in a hemocytometer.

HIV-1 = HIV-1 inhibition assay in magic (magi) cells, β-galactosidase expressing cells counted; type: cell-based, HIV-1 strain HXB2; settings: for IC50: Human immunodeficiency virus 1, MAGI, magic cells, HIV-1, drug pretreatment 4 hours, fixed two days later, read-out: Anti-HIV IC50; for Index TD50/IC50: ratio of toxicity TD50 to anti-HIV IC50
Description: as §1
The magi cell assay described by Kimpton et al., supra, was used as described. This assay identifies individual cells infected with HIV-1 by the expression of tat, which transactivates an endogenous copy of the HIV-1 LTR linked to the lac2 reporter gene after integration, inducing β-galactosidase expression when Xgal is added to the cell medium. Any cell with integrated HIV-1 will turn blue. Thus, this assay provides a convenient way to determine the effect of HIV inhibitors at any early step up through the expression of tat, including the inhibition of integration.
The magic cells are plated in twelve-well plates one day prior to infection. The standard assay involves infection with approximately 200 infectious units of HIV-1. This gives an approximately 20 to 1 ratio of signal to background and sufficient numbers of infectious events to quantitate dim effects. The cells are pretreated with drug for 4 hours prior to virus infection, and virus adsorption takes place for 1 hour. The cells are washed with plain medium, and then medium with inhibitor is placed back on the cells. Two days later the cells are fixed after integration with Xgal the indicator reagent for β-galactosidase production. The number of β-galactosidase expressing cells are quantitated by light microscopy.
The results of comparisons of infectious units with or without various concentrations of the bis-benzimididazoles drugs in the magic cell assay are expressed as IC50 values and are compiled in Table 2 above. Note that the best anti-HIV compounds were generally also the best integrase inhibitors.

| SMILES | IC50 (HIV-1 integrase) [µM] | CC50 (in vitro) [µM] | IC50 (HIV-1) [µM] | Index TD50/IC50 (HIV-1) |
| --- | --- | --- | --- | --- |
| N=C(NC1CCCC1)c1ccc2nc(-c3ccc4oc(-c5nc6ccc(C(=N)NC7CCCC7)cc6[nH]5)cc4c3)[nH]c2c1 [S-6] | 1.4 | – | – | – |
| Cn1c(-c2nc3ccc(C(=N)NC4CCCC4)cc3[nH]2)ccc1-c1nc2ccc(C(=N)NC3CCCC3)cc2[nH]1 [S-11] | > 10 | 732 | – | – |
| c1cc(-c2nc3cc(C4=NCCN4)ccc3[nH]2)cc(-c2nc3cc(C4=NCCN4)ccc3[nH]2)c1 [S-2] | > 10 | – | – | – |
| N=C(N)c1ccc2nc(-c3ccc(-c4nc5ccc(C(=N)N)cc5[nH]4)[nH]3)[nH]c2c1 [S-8] | 0.5 | – | – | – |
| N=C(N)c1ccc2nc(-c3cccc(-c4nc5ccc(C(=N)N)cc5[nH]4)c3)[nH]c2c1 [S-1] | 1 | 40 | – | – |
| CC(C)NC(=N)c1ccc2nc(-c3ccc(-c4nc5ccc(C(=N)NC(C)C)cc5[nH]4)o3)[nH]c2c1 [S-16] | < 10 | 238 | 1.39 | 170.88 |
| c1cc2[nH]c(-c3ccc(-c4nc5cc(C6=NCCN6)ccc5[nH]4)[nH]3)nc2cc1C1=NCCN1 [S-9] | > 10 | 213 | – | – |
| CC(C)NC(=N)c1ccc2nc(-c3ccc4c(c3)Cc3cc(-c5nc6ccc(C(=N)NC(C)C)cc6[nH]5)ccc3-4)[nH]c2c1 [S-3] | < 10 | – | – | – |
| N=C(N)c1ccc2nc(-c3ccc4oc(-c5nc6ccc(C(=N)N)cc6[nH]5)cc4c3)[nH]c2c1 [S-5] | < 10 | – | 19.8 | – |
| CC(C)NC(=N)c1ccc2nc(-c3ccc(-c4nc5ccc(C(=N)NC(C)C)cc5[nH]4)n3C)[nH]c2c1 [S-12] | < 10 | 289 | – | – |
| N=C(N)c1ccc2nc(-c3ccc(-c4nc5ccc(C(=N)N)cc5[nH]4)o3)[nH]c2c1 [S-14] | 0.9 | 81.5 | 26.7 | 3.05 |
| c1cc2nc(-c3ccc(-c4nc5ccc(C6=NCCN6)cc5[nH]4)o3)[nH]c2cc1C1=NCCN1 [S-15] | 0.6 | 41.9 | 8.01 | 5.23 |
| N=C(NC1CCCC1)c1ccc2nc(-c3ccc(-c4nc5ccc(C(=N)NC6CCCC6)cc5[nH]4)[nH]3)[nH]c2c1 [S-13] | < 5 | 78.2 | – | – |
| CC(C)NC(=N)c1ccc2nc(-c3cnc(-c4nc5ccc(C(=N)NC(C)C)cc5[nH]4)o3)[nH]c2c1 [S-4] | < 10 | – | – | – |
| Cn1c(-c2nc3ccc(C(=N)N)cc3[nH]2)ccc1-c1nc2ccc(C(=N)N)cc2[nH]1 [S-7] | 0.85 | 90.3 | – | – |
| c1cnc(-c2ccc3nc(-c4ccc(-c5nc6ccc(-c7ncccn7)cc6[nH]5)[nH]4)[nH]c3c2)nc1 [S-10] | < 10 | – | – | – |
